What was measured:
[1] = target: T1, AtGlcAK (Arabidopsis thaliana, UniProt Q93ZC9, I297M); assay: AtGlcAK substrate specificity CE assay; format: biochemical
T1 construct: made in house; host or cells: E. coli BL21 (DE3)
Method: Substrate specificity assays. […] The reactions were quenched and assayed with the same method as those for pH profile. All reactions were performed in duplicates.

[2] = target: T2, human FGF-2 (Homo sapiens, UniProt P09038); assay: Inhibition of FGF-2 binding to immobilized heparin-biotin; settings: compound 1 mM; FGF 1 μM
T2 construct: purchased PeproTech Inc (Rocky Hill, N.J.)
From the text: (§1) Materials. Recombinant human fibroblast growth factors FGF-1, FGF-2, FGF-4, and anti-human FGF-1, FGF-2, FGF-4 were purchased from PeproTech Inc (Rocky Hill, N.J.). Heparin-biotin was from Sigma (St. Louis, Mo.). Low molecular weight heparin (LMWH) was bought from AMS Biotechnology (Lake Forest, Calif.). Alexa Fluor® 488 goat anti-rabbit IgG (H+L) was from Invitrogen (Carlsbad, Calif.). 384-Well NeutrAvidin-coated plates for the sialidase assays were from Fisher Biotech.
(§2) Methods. All assays were carried out in duplicate in 384-well NeutrAvidin coated plates. Heparin-biotin (20 μL, 2 μM) was added to each well and the plate was incubated at 4° C. for overnight. The plate was washed with 3 rounds of 1×PBS buffer containing 0.05% Tween-20 and blocked with 1% BSA (50 μL for each well) and incubated at r.t. for 30 min. After the plate was washed three times with 1×PBS buffer containing 0.05% Tween-20, each set of duplicate wells were added 20 μL of human FGF-1, FGF-2, or FGF-4 (1 μM) with or without premixing with LMWH (˜22 nM or 0.1 μM), monosaccharide, or oligosaccharides (100 μM or 1 mM) and the plate was incubate at r.t. for 1 hr. After washing three times with 1×PBS buffer containing 0.05% Tween-20, anti-human FGF-1, FGF-2 or FGF-4 (20 μL) was added and the plate was incubated at r.t. for 1 hr. After the plate was washed three times with 1×PBS buffer containing 0.05% Tween-20, Alexa Fluor® 488 goat anti-rabbit IgG (H+L) (20 μL) was added and the plate was incubated at r.t. for 1 hr. After washed three times with 1×PBS buffer containing 0.05% Tween-20 and once with water, the fluorescent signals of wells in the plate were measured using a microtiter plate reader.

[3] = target: T3, human FGF-1 (Homo sapiens, UniProt P05230); assay: Inhibition of FGF-1 binding to immobilized heparin-biotin; settings: compound 1 mM; FGF 1 μM
T3 construct: purchased PeproTech Inc (Rocky Hill, N.J.)
From the text: as §1, §2

[4] = target: T1, AtGlcAK; assay: AtGlcAK substrate specificity by TLC and LC-MS; format: biochemical; settings: sugar 10 mM, ATP 20 mM, AtGlcAK 22 μg, 37° C., 15 hr
Method: Substrates specificity assays by thin-layer chromatography (TLC). […] For visualizing compounds on TLC plate, p-anisaldehyde sugar stain was used.
LC-MS assays for AtGlcAK reactions. The AtGlcAK reaction mixtures above were also analyzed by LC-MS. 2 μL of sample was diluted 100 fold and 8 μL was injected into a Waters spherisorb ODS-2 column (5 μm particles, 250 mm length, 4.6 mm I.D.). The sample was eluted with 30% acetonitrile in H2O with 0.1% formic acid and detected by ESI-MS in negative mode.

[5] = target: T4, human FGF-4 (Homo sapiens, UniProt P08620); assay: Inhibition of FGF-4 binding to immobilized heparin-biotin; settings: compound 1 mM; FGF 1 μM
T4 construct: purchased PeproTech Inc (Rocky Hill, N.J.)
T4 sequence (P08620 31-206): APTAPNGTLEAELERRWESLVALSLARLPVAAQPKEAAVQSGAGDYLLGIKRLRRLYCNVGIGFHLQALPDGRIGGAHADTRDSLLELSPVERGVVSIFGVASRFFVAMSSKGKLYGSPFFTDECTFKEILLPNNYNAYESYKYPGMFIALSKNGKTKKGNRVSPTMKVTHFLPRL
From the text: as §1
as §2, with “After washing three times with 1×PBS buffer containing 0.05% Tween-20, anti-human FGF-1, FGF-2 or FGF-4 (20 μL) was added and the plate was incubated at r.t. for 1 hr. After the plate was washed three times with 1×PBS buffer containing 0.05% Tween-20, Alexa Fluor® 488 goat anti-rabbit IgG (H+L) (20 μL) was added and the plate was incubated at r.t. for 1 hr.” left out

[6] = target: NahK_ATCC15697 (Bifidobacterium longum, UniProt B7GN78); assay: Kinetics by CE assays, NahK_ATCC15697; settings: in the presence of ATP
Method: (§3) Kinetics by CE assays. Reactions were carried out in duplicate at 37° C. for 10 min in a total volume of 20 μL in Tris-HCl buffer (200 mM, pH 7.5) containing MgCl2 (1 mM), ATP, GlcNAc or GalNAc, and NahK (0.25 μM when GlcNAc and ATP were used as substrates, 0.5 μM when GalNAc and ATP were used as substrates). Apparent kinetic parameters were obtained by varying the ATP concentration from 0.1-5.0 mM (0.1 mM, 0.2 mM, 0.4 mM, 1 mM, 2 mM, and 5 mM) at a fixed concentration of GlcNAc or GalNAc (1 mM), or varying the concentration of GlcNAc or GalNAc (0.1 mM, 0.2 mM, 0.4 mM, 1 mM, 2 mM, and 5 mM) at a fixed concentration of ATP (1 mM) and fitting the data to the Michaelis-Menten equation using Grafit 5.0.
(§4) Capillary electrophoresis (CE) assays. Based on the detection of ADP and ATP in the reaction mixture by a UV detector, a capillary electrophoresis-based method was developed to directly measure the formation of ADP and N-acetylhexosamine-1-phosphate from ATP and N-acetylhexosamine for characterizing the activities of NahKs.

[7] = target: NahK_ATCC55813 (Bifidobacterium longum subsp. longum, UniProt E8MF12, D7V/R348H)
Method: as §3, §4

[8] = target: NahK_JCM1217 (Bifidobacterium longum subsp. longum, UniProt E8MF12); settings: ATP and GlcNAc as substrates; HPIC with pulsed amperometric detector; cited from earlier work
[9] = tested on: necrotizing enterocolitis in neonatal rats; settings: previously reported; cited from earlier work
[10] = Low enzyme Conc. (412 ng in 20 μL, 15 min, 37° C.)

## O=C[C@H](O)[C@@H](O)[C@H](O)[C@H](O)C(=O)O [Compound F24-1, glucuronic acid]
[1]; [10]
  Percentage conversion of ATP: 61.5%
[2]
  inhibition at 1000 µM: 68%
[3]
  inhibition at 1000 µM: 65%
[4]
  substrate for AtGlcAK (formation of sugar-1-phosphate): acceptable substrates
[5]
  inhibition at 1000 µM: 54%

## CC(=O)N[C@H]1C(O)O[C@H](CO)[C@@H](O)[C@@H]1O (stereo partly shown) [GlcNAc, N-acetylglucosamine]
[6]
  efficiency as substrate relative to GalNAc: 3.1 fold
[7]; in the presence of ATP
  efficiency as substrate relative to GalNAc: 2.6 fold
[8]
  Km: 118 µM

## CC(=O)N[C@H]1[C@H](O[C@H]2[C@@H](O)[C@@H](CO)O[C@@H](O[C@@H]([C@H](O)[C@@H](O)C=O)[C@H](O)CO)[C@@H]2O)O[C@H](CO[C@]2(C(=O)O)C[C@H](O)[C@@H](NC(C)=O)[C@H]([C@H](O)[C@H](O)CO)O2)[C@@H](O)[C@@H]1O[C@@H]1O[C@H](CO)[C@H](O)[C@H](O[C@]2(C(=O)O)C[C@H](O)[C@@H](NC(C)=O)[C@H]([C@H](O)[C@H](O)CO)O2)[C@H]1O [DSLNT, disialyllacto-N-tetraose]
[9]
  NEC preventing effect in neonatal rat model: effective for preventing necrotizing enterocolitis

## O=C[C@@H](O)[C@H](O)[C@@H](O)[C@H](O)C(=O)O [IdoA, iduronic acid]
[4]
  substrate for AtGlcAK (formation of sugar-1-phosphate): acceptable substrates

## Nc1ncnc2c1ncn2[C@@H]1O[C@H](COP(=O)(O)OP(=O)(O)OP(=O)(O)O)[C@@H](O)[C@H]1O [ATP, Adenosine-5′-triphosphate]
[7]; substrates ATP and GlcNAc
  kcat: 1.3 ± 0.1 s⁻¹
[7]; substrates ATP and GlcNAc, one varied, other fixed at 1 mM, 37° C., 10 min
  Km: 110 ± 30 µM
[8]
  Km: 172 µM

## GlcNAc6NH2α1-4GlcAβ1-4GlcNSα1-4GlcAβ2AA [Compound F24-15]
[2]
  FGF-2 (% inhibition): 68%
[5]
  FGF-4 (% inhibition): 43%

## O=C[C@H](O)[C@@H](O)[C@@H](O)[C@H](O)C(=O)O [GalA, galacturonic acid]
[1]; High enzyme Conc. (2.1 μg in 20 μL, 60 min, 37° C.)
  Percentage conversion of ATP: 15.3%
[1]; [10]
  Percentage conversion of ATP: 6.2%
[4]
  substrate for AtGlcAK (formation of sugar-1-phosphate): acceptable substrates

## GlcAβ1-4GlcNH2α1-4GlcAβ2AA [Compound F24-11]
[3]
  FGF-1 (% inhibition): 76%

## GlcNAc6NSα1-4GlcAβ1-4GlcNSα1-4GlcAβ2AA [Compound F24-16]
[2]
  FGF-2 (% inhibition): 55%
[3]
  FGF-1 (% inhibition): 58%

## GlcNAc6N3α1-4GlcAβ1-4GlcNH2α1-4GlcAβ2AA [Compound F24-13]
[3]
  FGF-1 (% inhibition): 62%

Reference: US10160986B2, “Chemoenzymatic synthesis of heparin and heparan sulfate analogs” (The Regents of the University of California, priority 2011, dated 2018)
